Test results taken from article PMC9607427, “Novel 7-Chloro-(4-thioalkylquinoline) Derivatives: Synthesis and Antiproliferative Activity through Inducing Apoptosis and DNA/RNA Damage” (Pharmaceuticals, 2022).
pIC50: −log10 of the molar value. Like-named read-outs stand apart in the source and are kept apart here.

Columns and labels:
[1] = system: A549 (lung adenocarcinoma); experiment: Cytotoxic MTS assay, A549; format: cell-based, human
Experimental: (§1) In vitro cytotoxic activity of final compounds 5–82 was evaluated after 3 days of incubation against eight cell lines derived from human solid tumors including lung (A549 cells) and colon (HCT116 and HCT116p53−/−) carcinomas, as well as leukemia cell lines (CCRF-CEM, CEM-DNR, K562, and K562-TAX) and osteosarcoma (U2OS cells). For comparison, non-malignant BJ and MRC-5 fibroblasts, and BJLD and MCR-5LD fibroblasts doxorubicin-resistant cell lines were used. Concentrations inhibiting the cell growth by 50% (IC50) were determined using a quantitative metabolic staining with 3-(4,5-dimethylthiazol-2yl)-5-(3-carboxymethoxyphenyl)-2-(4-sulfophenyl)-2H-tetrazolium (MTS) and are summarized in (Table 3).
(§2) Cytotoxic activity was determined by MTS assay following 72 h of incubation. IC50 is the lowest concentration that kills 50% of cells. The standard deviation in cytotoxicity assays is typically up to 20% of the average value. […] The tested cell lines: A549 (lung adenocarcinoma), BJ (noncancerous human fibroblasts from foreskin), BJLD (human lung fibroblast doxorubicin-resistant), CCRF-CEM (childhood T cell acute lymphoblastic leukemia), a daunorubicin-resistant subline of CCRF-CEM cells (CEM-DNR bulk), HCT116 (colorectal carcinoma), HCT116p53−/− (HCT116 with deleted p53 gene), K562 (chronic myeloid leukemia), K562-TAX (chronic myeloid leukemia paclitaxel-resistant subline), MRC-5 (noncancerous human lung fibroblasts), MRC-5LD (noncancerous human lung fibroblasts doxorubicin-resistant), and U2OS (osteosarcoma).
(§3) All cell lines were purchased from the American Tissue Culture Collection (ATCC). The A549 cell line is lung adenocarcinoma. MRC-5 and BJ cell lines were used as a non-tumor control and represent human fibroblasts. (MRC-5 LD and BJLD) are doxorubicin-resistant human lung fibroblast cell lines. The CCRF-CEM line is derived from T lymphoblastic leukemia, evincing high chemosensitivity, whereas K562 represent cells from an […] patient sample with bcr-abl translocation. The daunorubicin-resistant subline of CCRF-CEM cells (CEM-DNR bulk) and paclitaxel-resistant subline K562-TAX were selected in our laboratory by the cultivation of maternal cell lines in increasing concentrations of daunorubicin or paclitaxel, respectively. The CEM-DNR bulk cells overexpress MRP-1 and P-glycoprotein protein, whereas K562-TAX cells overexpress P-glycoprotein only. Both proteins belong to the family of ABC transporters and are involved in the primary and/or acquired multidrug-resistance phenomenon. The U2OS cell line is derived from osteosarcoma, HCT116 is a colorectal tumor cell line and its p53 gene knock-down counterpart (HCT116p53−/−, Horizon Discovery Ltd., Cambridge, UK) is a model of human cancers with p53 mutation frequently associated with poor prognosis. The cells were maintained in nunc/corning 80 cm^2 plastic tissue culture flasks and cultured in a cell culture medium according to ATCC or Horizon recommendations (DMEM/RPMI 1640 with 5 g/L glucose, 2 mM glutamine, 100 U/mL penicillin, […], 10% fetal calf serum, and NaHCO3).
(§4) The activity of compounds was determined using a standard 3-(4,5-dimethylthiazol-2-yl)-5-(3-carboxymethoxyphenyl)-2-(4-sulfophenyl)-2H-tetrazolium (MTS) and it was performed at the Institute of Molecular and Translational Medicine by a robotic platform (High-ResBiosolutions). Cell suspensions were prepared and diluted according to the particular cell type and the expected target cell density (25,000–35,000 cells/mL based on cell growth characteristics). Cells were added by automatic pipettor (30 µL) into 384-well microtiter plates. All tested compounds were dissolved in 100% DMSO and four-fold dilutions of the intended test concentration were added in 0.15 µL aliquots at time zero to the microtiter plate wells by the echo acoustic non-contact liquid handler Echo550 (Labcyte). […]

[2] = Cytotoxic MTS assay, BJ; format: cell-based, human; conditions: human, BJ cells (noncancerous foreskin fibroblasts); MTS, 72 h of incubation
Experimental: as §1, §2, §3, §4

[3] = Cytotoxic MTS assay, BJLD; format: cell-based, human; conditions: human, BJLD cells (fibroblasts, doxorubicin-resistant); MTS, 72 h of incubation
Experimental: as §1, §2, §3, §4

[4] = system: CCRF-CEM (childhood T cell acute lymphoblastic leukemia); experiment: Cytotoxic MTS assay, CCRF-CEM; format: cell-based, human
Experimental: as §1, §2, §3, §4

[5] = system: CEM-DNR bulk (daunorubicin-resistant subline of CCRF-CEM cells); experiment: Cytotoxic MTS assay, CEM-DNR; format: cell-based, human
Experimental: as §1, §2, §3, §4

[6] = system: HCT116 (colorectal carcinoma); experiment: Cytotoxic MTS assay, HCT116; format: cell-based, human
Experimental: as §1, §2, §3, §4

[7] = system: HCT116p53−/− (HCT116 with deleted p53 gene); experiment: Cytotoxic MTS assay, HCT116p53−/−; format: cell-based, human
Experimental: as §1, §2, §3, §4

[8] = system: K562 (chronic myeloid leukemia); experiment: Cytotoxic MTS assay, K562; format: cell-based, human
Experimental: as §1, §2, §3, §4

[9] = system: K562-TAX (chronic myeloid leukemia paclitaxel-resistant subline); experiment: Cytotoxic MTS assay, K562-TAX; format: cell-based, human
Experimental: as §1, §2, §3, §4

[10] = Cytotoxic MTS assay, MRC-5; format: cell-based, human; conditions: human, MRC-5 cells (noncancerous lung fibroblasts); MTS, 72 h of incubation
Experimental: as §1, §2, §3, §4

[11] = Cytotoxic MTS assay, MRC-5LD; format: cell-based, human; conditions: human; MTS, 72 h of incubation; read-out: Cytotoxic activity IC50, MRC5-LD
Experimental: as §1, §2, §3, §4

[12] = system: U2OS (osteosarcoma); experiment: Cytotoxic MTS assay, U2OS; format: cell-based, human
Experimental: as §1, §2, §3, §4

[13] = system: BJ (noncancerous human fibroblasts from foreskin); experiment: Cytotoxic MTS assay, BJ; format: cell-based
Experimental: as §1, §2, §3, §4

[14] = system: BJLD (human lung fibroblast doxorubicin-resistant); experiment: Cytotoxic MTS assay, BJLD; format: cell-based
Experimental: as §1, §2, §3, §4

[15] = system: MRC-5 (noncancerous human lung fibroblasts); experiment: Cytotoxic MTS assay, MRC-5; format: cell-based
Experimental: as §1, §2, §3, §4

[16] = system: MRC-5LD (noncancerous human lung fibroblasts doxorubicin-resistant); experiment: Cytotoxic MTS assay, MRC-5LD; format: cell-based
Experimental: as §1, §2, §3, §4

[17] = Homo sapiens, A549, MTS, 72 h of incubation, read-out: Cytotoxic activity IC50, A549
[18] = Homo sapiens, CCRF-CEM, MTS, 72 h of incubation, read-out: Cytotoxic activity IC50, CCRF-CEM
[19] = Homo sapiens, CEM-DNR, MTS, 72 h of incubation, read-out: Cytotoxic activity IC50, CEM-DNR
[20] = Homo sapiens, HCT-116, MTS, 72 h of incubation, read-out: Cytotoxic activity IC50, HCT116
[21] = Homo sapiens, HCT-116, MTS, 72 h of incubation, read-out: Cytotoxic activity IC50, HCT116-p53
[22] = Homo sapiens, K562, MTS, 72 h of incubation, read-out: Cytotoxic activity IC50, K562
[23] = Homo sapiens, K562-Tax, MTS, 72 h of incubation, read-out: Cytotoxic activity IC50, K562-TAX
[24] = Homo sapiens, U2OS, MTS, 72 h of incubation, read-out: Cytotoxic activity IC50, U2OS

Row | Structure (SMILES) | pIC50 [1, 17] | IC50 at 72 h [2] | IC50 at 72 h [3] | pIC50 [4, 18] | pIC50 [5, 19] | pIC50 [6, 20] | pIC50 [7, 21] | pIC50 [8, 22] | pIC50 [9, 23] | IC50 at 72 h [10] | IC50 at 72 h [11] | pIC50 [12, 24] | pIC50 [1] | pIC50 [13] | pIC50 [14] | pIC50 [4] | pIC50 [5] | pIC50 [6] | pIC50 [7] | pIC50 [8] | further results
1 | COc1cccc(C(=O)OCCC[S+]([O-])c2ccnc3cc(Cl)ccc23)c1OC (stereo not drawn) [Compound 54, 3-[(7-Chloroquinolin-4-yl)sulfinyl]propyl-2,3-dimethoxybenzoate] | 4.59 | 30.4 µM | 26.9 µM | 5.96 | 4.99 | 4.85 | 5.04 | 4.85 | 5.12 | 27.2 µM | 25.1 µM | 4.77 |  |  |  |  |  |  |  |  | 
2 | COc1ccc(C(=O)OCC[S+]([O-])c2ccnc3cc(Cl)ccc23)cc1[N+](=O)[O-] (stereo not drawn) [Compound 48, 2-[(7-Chloroquinolin-4-yl)sulfinyl]ethyl-4-methoxy-3-nitrobenzoate] | 4.60 | 29.2 µM | 27.5 µM | 5.85 | 4.89 | 4.77 | 5.00 | 4.77 | 5.04 | 27.8 µM | 24 µM | 4.73 |  |  |  |  |  |  |  |  | 
3 | COc1cc(C(=O)OCCS(=O)(=O)c2cc[n+]([O-])c3cc(Cl)ccc23)cc(OC)c1OC [Compound 67, 2-[(N-Oxide 7-chloroquinolin-4-yl)sulfonyl]ethyl-3,4,5-trimethoxybenzoate] | 4.55 | 24.8 µM | 11.9 µM | 5.98 | 5.05 | 4.96 | 5.10 | 5.22 | 5.28 | 5.79 µM | 3.24 µM | 5.03 |  |  |  |  |  |  |  |  | 
4 | COc1ccc(C(=O)OCCC[S+]([O-])c2ccnc3cc(Cl)ccc23)cc1 (stereo not drawn) [Compound 53, 3-[(7-Chloroquinolin-4-yl)sulfinyl]propyl-4-methoxybenzoate] | 4.63 | 30 µM | 28.2 µM | 5.88 | 5.06 | 4.90 | 5.07 | 4.86 | 5.16 | 27.9 µM | 22.4 µM | 4.89 |  |  |  |  |  |  |  |  | 
5 | COc1cc(C(=O)OCCCS(=O)(=O)c2cc[n+]([O-])c3cc(Cl)ccc23)cc(OC)c1OC [Compound 77, 3-[(N-Oxide 7-chloroquinolin-4-yl)sulfonyl]propyl-3,4,5-trimethoxybenzoate] |  |  |  |  |  |  |  |  |  |  |  |  | 5.04 | 4.54 | 4.67 | 5.80 | 4.92 | 5.19 | 5.17 | 5.12 | pIC50 [9]: 4.96; pIC50 [15]: 4.59; pIC50 [16]: 4.70; pIC50 [12]: 5.11
6 | COc1ccccc1C(=O)OCCCS(=O)(=O)c1cc[n+]([O-])c2cc(Cl)ccc12 [Compound 78, 3-[(N-Oxide 7-chloroquinolin-4-yl)sulfonyl]propyl-2-methoxybenzoate] |  |  |  |  |  |  |  |  |  |  |  |  | 5.11 | 4.60 | 4.70 | 5.58 | 5.04 | 5.25 | 5.16 | 5.13 | pIC50 [9]: 5.06; pIC50 [15]: 4.65; pIC50 [16]: 4.71; pIC50 [12]: 5.14
